Results as given in ChEMBL document CHEMBL5325415, “Falcipains: Biochemistry, target validation and structure-activity relationship studies of inhibitors as antimalarials” (Eur J Med Chem, 2023).
Converted amounts (≈) assume the structure as drawn. Values belong to the compound of their own block, whether it stands above or below them. *1 amine or outer side, *2 acyl side, *3 side chain or, on linkers, in order; H or OH if unused. Where a SMILES comes first, the peptide text is derived from it. [ ]: non-standard residue; d: D form. The star is where a group is joined. hPhe = N[C@@H](CCc1ccccc1)C(=O)O; Morpholide = C1CN(*)CCO1; CO = O=C([*:1])[*:2]; CH2F = FC*

Key:
Falcipain 2 [1] = biological target: T1, Falcipain 2 (Plasmodium falciparum, UniProt Q9N6S8); assay: Inhibition of Plasmodium falciparum FP-2 using Z-Leu-Arg-AMC as substrate pretreated with enzyme for 30 mins followed by substrate addition and measured for 30 mins by spectrofluorometry
T1 sequence (Q9N6S8 whole entry): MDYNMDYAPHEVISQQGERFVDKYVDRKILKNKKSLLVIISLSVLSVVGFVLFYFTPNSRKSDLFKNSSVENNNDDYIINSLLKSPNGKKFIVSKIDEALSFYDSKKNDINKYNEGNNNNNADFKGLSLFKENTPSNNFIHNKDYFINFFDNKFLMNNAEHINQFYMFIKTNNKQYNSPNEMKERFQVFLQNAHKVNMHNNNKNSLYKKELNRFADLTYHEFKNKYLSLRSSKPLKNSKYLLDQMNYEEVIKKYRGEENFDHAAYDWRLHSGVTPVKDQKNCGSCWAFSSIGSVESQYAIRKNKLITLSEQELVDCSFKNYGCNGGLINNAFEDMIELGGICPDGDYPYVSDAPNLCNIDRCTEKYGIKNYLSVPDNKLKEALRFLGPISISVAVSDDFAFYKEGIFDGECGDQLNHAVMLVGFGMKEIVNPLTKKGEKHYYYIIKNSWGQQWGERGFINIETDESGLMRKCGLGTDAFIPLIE

Plasmodium falciparum [2] = assay: Antiplasmodial activity against Plasmodium falciparum 3D7 infected in human erythrocytes assessed as growth inhibition measured after 52 hrs by SYBR green dye based assay; type: functional, organism-based; settings: 3D7, Erythrocyte
Falcipain 2 [3] = biological target: T1, Falcipain 2; assay: Inhibition of Plasmodium falciparum FP2 using ZFR-AMC as substrate preincubated with enzyme for 10 mins followed by substrate addition and measured for 30 mins by fluorimetric analysis
Falcipain 2 [4] = biological target: T1, Falcipain 2; assay: Inhibition of Plasmodium falciparum Itg2 trophozite extracts FP-2 using Z-phe-Arg-AMC as substrate pretreated with enzyme for 30 mins followed by substrate addition and measured for 30 mins by spectrofluorometry
Plasmodium falciparum [5] = assay: Antimalarial activity against chloroquine-sensitive Plasmodium falciparum 3D7 infected in RBC measured after 24 to 30 hrs by microscopic analysis; type: functional, organism-based; settings: 3D7, Erythrocyte
Falcipain 2 [6] = biological target: T1, Falcipain 2; assay: Inhibition of Plasmodium falciparum FP-2 using Cbz-Phe-Arg-AMC as substrate pretreated with enzyme for 10 mins followed by substrate addition and measured after 10 mins by fluorescence based analysis
Plasmodium falciparum [7] = assay: Antimalarial activity against chloroquine-resistant Plasmodium falciparum RKL9 infected in RBC measured after 24 to 30 hrs by microscopic analysis; type: functional, organism-based; settings: RKL9, Erythrocyte
Plasmodium falciparum [8] = assay: Antimalarial activity against Chloroquine-sensitive Plasmodium falciparum 3D7 infected in human erythrocytes assessed as inhibition of parasite growth incubated for 72 hrs by Giemsa staining based analysis; type: functional, organism-based; settings: 3D7, Erythrocyte
[9] = biological target: T2, Falcipain 2 (Plasmodium falciparum) (UniProt Q9N6S8); assay: Inhibition of Plasmodium falciparum FP-2 using Z-Leu-Arg-AMC as substrate at 10 uM pretreated with enzyme for 30 mins followed by substrate addition and measured for 30 mins by spectrofluorometry; settings: time 60.0 min
T2 sequence (whole entry): T1 sequence (Q9N6S8 whole entry)

Falcipain 2 [10] = biological target: T1, Falcipain 2; assay: Inhibition of Plasmodium falciparum FP-2 using Z-Phe-Arg-AMC as substrate pretreated with enzyme for 10 mins followed by susbtrate addition and measured after 10 mins by fluorescence based analysis
Plasmodium falciparum [11] = assay: Antimalarial activity against Chloroquine-resistant Plasmodium falciparum RKL9 infected in human erythrocytes assessed as inhibition of parasite growth incubated for 72 hrs by Giemsa staining based analysis; type: functional, organism-based; settings: RKL9, Erythrocyte
Plasmodium falciparum [12] = assay: Antiplasmodial activity against Plasmodium falciparum HB3; type: functional, organism-based
Plasmodium falciparum [13] = assay: Antiplasmodial activity against Plasmodium falciparum D6; type: functional, organism-based
Falcipain 2 [14] = biological target: T1, Falcipain 2; assay: Inhibition of Plasmodium falciparum trophozite extracts FP-2
Plasmodium falciparum [15] = assay: Antiplasmodial activity against Plasmodium falciparum Dd2; type: functional, organism-based
Plasmodium falciparum [16] = assay: Antiplasmodial activity against Plasmodium falciparum ItG; type: functional, organism-based
Plasmodium falciparum [17] = assay: Antiplasmodial activity against Plasmodium falciparum W2; type: functional, organism-based
[18] = Inhibition of Plasmodium vinckei extracts VP-2 using Z-phe-Arg-AMC as substrate pretreated with enzyme for 30 mins followed by substrate addition and measured for 30 mins by spectrofluorometry

SMILES: CCOc1ccc(NC(=O)N/N=C/c2ccc(C(=O)O[C@@H]3O[C@@H]4O[C@@]5(C)CC[C@H]6[C@H](C)CC[C@@H]([C@H]3C)[C@@]46OO5)cc2)cc1
- IC50 (Falcipain 2 [1]): 290 nM

SMILES: Fc1ccccc1-n1cc(COc2ccnc3cc(Cl)ccc23)nn1
- EC50 (Plasmodium falciparum [2]): 66600 nM
- IC50 (Falcipain 2 [3]): 107000 nM

- IC50 (Falcipain 2 [4]): 8000 nM
SMILES: Oc1ccc(-c2nccc3ccc(Cc4ccccc4)cc23)cc1

SMILES: Cc1ccc(-c2nn(-c3ccccc3)cc2/C=C/c2nnc(-c3ccc(Cl)cc3)o2)cc1
- IC50 (Plasmodium falciparum [5]): 0.486 µg/mL (≈ 1.11 µM)
- IC50 (Falcipain 2 [6]): 20000 nM
- IC50 (Plasmodium falciparum [7]): 1.57 µg/mL (≈ 3.58 µM)

SMILES: N#C/C(=C\c1ccc(O)cc1)c1nc2ccccc2[nH]1
- IC50 (Plasmodium falciparum [8]): 47600 nM

SMILES: Cc1ccc(-c2nn(-c3ccccc3)cc2/C=C/c2nnc(-c3ccc([N+](=O)[O-])cc3)o2)cc1
- IC50 (Plasmodium falciparum [5]): 0.486 µg/mL (≈ 1.08 µM)
- IC50 (Falcipain 2 [6]): 16000 nM
- IC50 (Plasmodium falciparum [7]): 1.57 µg/mL (≈ 3.5 µM)

SMILES: Cc1cc(C)cc(NC(=O)N/N=C/c2ccc(C(=O)O[C@@H]3O[C@@H]4O[C@@]5(C)CC[C@H]6[C@H](C)CC[C@@H]([C@H]3C)[C@@]46OO5)cc2)c1
- IC50 (Falcipain 2 [1]): 570 nM

SMILES: O=C(N[C@H](Cc1c[nH]c2ccccc12)C(=O)NCc1ccccc1)Oc1ccccc1
- inhibition [9]: 29.4%
- IC50 (Falcipain 2 [1]): 29700 nM

SMILES: COc1cc(/C=C(\C#N)c2nc3ccccc3[nH]2)cc(OC)c1
- IC50 (Falcipain 2 [10]): 3610 nM
- IC50 (Plasmodium falciparum [11]): 14300 nM
- IC50 (Plasmodium falciparum [8]): 1600 nM

- inhibition [9]: 53%
- IC50 (Falcipain 2 [1]): 11800 nM
SMILES: C=CCn1c(SCC(=O)Nc2sc3c(c2C(N)=O)CCC3)nc2scc(-c3cccc([N+](=O)[O-])c3)c2c1=O

SMILES: Fc1ccc(-n2cc(COc3ccnc4cc(Cl)ccc34)nn2)c(F)c1
- EC50 (Plasmodium falciparum [2]): 159000 nM
- IC50 (Falcipain 2 [3]): 25400 nM

SMILES: N#C/C(=C\c1cccc(F)c1)c1nc2ccccc2[nH]1
- IC50 (Plasmodium falciparum [11]): 53300 nM
- IC50 (Plasmodium falciparum [8]): 22200 nM

- IC50 (Falcipain 2 [4]): 3000 nM
SMILES: COc1cc2ccnc(-c3ccc(OCc4ccccc4)cc3)c2cc1OC

- inhibition [9]: 92.7%
- IC50 (Falcipain 2 [1]): 1460 nM
SMILES: NC(=O)c1c(NC(=O)CSc2nc3scc(-c4ccccc4)c3c(=O)n2C2CCCCC2)sc2c1CCC2

SMILES: COC(=O)c1ccc(CNC(=O)[C@@H](Cc2c[nH]c3ccccc23)NC(=O)Oc2ccccc2)cc1
- inhibition [9]: 32.9%
- IC50 (Falcipain 2 [1]): 13300 nM

SMILES: COc1ccc(-n2cc(COc3ccnc4cc(Cl)ccc34)nn2)cc1
- EC50 (Plasmodium falciparum [2]): 51700 nM
- IC50 (Falcipain 2 [3]): 25400 nM

SMILES: CCOc1cccc(NC(=S)N/N=C/c2ccc(O[C@H]3O[C@@H]4O[C@@]5(C)CC[C@H]6[C@H](C)CC[C@@H]([C@H]3C)[C@@]46OO5)cc2)c1
- IC50 (Falcipain 2 [1]): 520 nM

- IC50 (Falcipain 2 [3]): 2640 nM
SMILES: CC(=O)Nc1ccc(S(=O)(=O)N2CCN(C(=O)c3cc(-c4ccc(OC(F)(F)F)cc4)nc4ccccc34)CC2)cc1
- EC50 (Plasmodium falciparum [2]): 1430 nM

SMILES: N#C/C(=C\c1cccc(Cl)c1)c1nc2ccccc2[nH]1
- IC50 (Plasmodium falciparum [8]): 24800 nM

- inhibition [9]: 25.7%
- IC50 (Falcipain 2 [1]): 39400 nM
SMILES: O=C(Cc1ccccc1)N[C@H](Cc1c[nH]c2ccccc12)C(=O)NCc1ccccc1

- IC50 (Plasmodium falciparum [12]): 0.66 nM
- IC50 (Plasmodium falciparum [13]): 0.9 nM
- IC50 (Falcipain 2 [14]): 3 nM
- IC50 (Plasmodium falciparum [15]): 0.78 nM
- IC50 (Plasmodium falciparum [16]): 0.51 nM
- IC50 (Plasmodium falciparum [17]): 0.81 nM
SMILES: O=C(CF)[C@H](CCc1ccccc1)NC(=O)[C@H](Cc1ccccc1)NC(=O)N1CCOCC1 ({Morpholide-CO}-Phe-[hPhe]-CH2F)

- inhibition [9]: 88.7%
- IC50 (Falcipain 2 [1]): 2810 nM
SMILES: C=CCn1c(SCC(=O)Nc2sc3c(c2C(N)=O)CCC3)nc2scc(-c3ccccc3)c2c1=O

SMILES: C[C@H]1[C@H](OC(=O)c2ccc(/C=N/NC(=O)Nc3ccc(F)cc3)cc2)O[C@@H]2O[C@@]3(C)CC[C@H]4[C@H](C)CC[C@@H]1[C@@]24OO3
- IC50 (Falcipain 2 [1]): 650 nM

SMILES: O=C(N[C@H](Cc1c[nH]c2ccccc12)C(=O)NCc1ccc([N+](=O)[O-])cc1)Oc1ccccc1
- inhibition [9]: 49.5%
- IC50 (Falcipain 2 [1]): 10000 nM

- IC50 (Falcipain 2 [3]): 4780 nM
SMILES: O=C(c1cc(Cl)nc2ccccc12)N1CCN(c2ccnc3cc(Cl)ccc23)CC1
- EC50 (Plasmodium falciparum [2]): 1050 nM

- IC50 [18]: 200 nM
- IC50 (Plasmodium falciparum [12]): 0.44 nM
- IC50 (Falcipain 2 [4]): 5 nM
- IC50 (Plasmodium falciparum [13]): 0.58 nM
- IC50 (Plasmodium falciparum [15]): 0.4 nM
- IC50 (Plasmodium falciparum [16]): 0.6 nM
- IC50 (Plasmodium falciparum [17]): 0.45 nM
SMILES: CC(C)C[C@H](NC(=O)N1CCN(C)CC1)C(=O)N[C@H](/C=C/S(=O)(=O)c1ccccc1)CCc1ccccc1
